The text below walks through data of patent US20150010644A1, “OXYGENATION OF THE MUCOSAL BARRIER BY ENTERAL ARTIFICIAL BLOOD TO PREVENT HYPOXIC BREAKDOWN OF THE MUCOSAL BARRIER” (THE REGENTS OF THE UNIVERSITY OF CALIFORNIA, priority 2011, published 2015).

The subject of experiment [1] is ATP concentration in intestine homogenates. Put plainly: ATP assay in intestine homogenates, rat SAO model. The following applies: lumenal injection 30 min prior. It counts as in vivo. As to the method: (§1) Male Wistar rats (250-300 g, Harlan Sprague Dawley Inc, Indianapolis, Ind.) were randomly assigned to each group (n=4 per group). Rats were kept on solid food restriction for 12 hours prior to surgery with water ad libitum. […] Sham groups were treated the same with the arteries separated but not ligated.
(§2) Perfluorocarbon groups: Perfluorodecalin (PFC) (Sigma-Aldrich, St Louis, Mo.) with oxygen, previously bubbled into the solution for 10 min, was injected into the lumen of the intestine 30 min prior SHAM or SAO surgery (SHAM+PFC+O2, SAO+PFC+O2). PFC without oxygen bubbled into the solution was injected 30 min prior SHAM or SAO surgery (SHAM+PFC, SAO+PFC).
(§3) ATP-MgCl2 groups: ATP-MgCl2 (Sigma-Aldrich), 25 mg/kg BW was injected in the lumen of the intestine 30 min prior to SHAM or SAO surgery (SHAM+ATP, SAO+ATP).
(§4) pH groups: Acidic saline (pH 5.5) injected in the lumen of the intestine 30 min prior SHAM surgery or HEPES buffer (20 mM) injected into the lumen of the intestine 30 min prior to SHAM or SAO surgery.
(§5) Free radicals groups: The hydroxyl radical scavenger, dimethylthiourea (DMTU, Sigma-Aldrich; 2.0 mg/g BW) was injected in the lumen of the intestine 30 min prior to SAO (SAO+DMTU).
ATP assay: ATP concentrations in intestine homogenates were measured using ATP fluorometirc assay kit (BioVision, Mountain View, Calif.) according to manufacturer's protocol. Briefly jejuna sections were homogenized with perchloric acid (BioVision), centrifuged at 15,000×G for 5 min at 4° C. Samples were mixed with ATP reaction mix, incubated for 30 min protected from light and the fluorescence was measured with 535/587 (Ex/Em).

The subject of another experiment is intestinal villi hypoxia. Put plainly: Hypoxia staining (pimonidazole, Hypoxyprobe-1) of intestinal villi, rat SAO model. Conditions: SAO 30 min; lumenal injection 30 min prior. Format: in vivo. The protocol:
as §1, §2, §3, §4, §5
Hypoxia staining: In separate experiments tissue hypoxia was detected with Hypoxyprobe™-1 Kit (Natural Pharmacia International, Burlington, Mass., USA). This method utilizes a small molecular marker, pimonidazole, which after intravenous injection forms adducts with thiol containing proteins only in oxygen-starved cells. After general anesthesia as described above, pimonidazole-HCl (6 mg/100 g) was injected intravenously 30 min before SAO or SHAM; at 30 min the animal was euthanized and the jejuna section removed, embedded in O.C.T and frozen in liquid nitrogen. Then cryosections were immunostained using a rabbit antibody that binds to protein adducts of pimonidazole in hypoxic cells.

The subject of experiment [2] is trypsin activity in the intestinal wall. The experiment is described as follows: In-situ zymography for trypsin activity in jejunal cryosections, rat splanchnic arterial occlusion (SAO) model. It counts as in vivo. The following applies: lumenal injection 30 min prior. The protocol:
as §1
Control groups: Animals with saline injection into the lumen of the intestine, 3 ml/100 g Body Weight (BW), 30 min prior to SHAM or SAO surgery.
as §2
ATP-MgCl2 groups: ATP-MgCl2 (Sigma-Aldrich), 25 mg/kg BW was injected in the lumen of the intestine 30 min prior to SHAM or SAO surgery (SHAM+ATP, SAO+ATP). […]
After 30 min SAO or sham surgery, the animals were euthanized (Beuthanasia®; 0.22 ml/kg BW, IV).
(§6) Tissue cryosections: After euthanasia, jejunal sections (˜1 cm in length) were excised without removal of lumenal contents and suspended in Tissue-Tek O.C.T. Compound (Sakura Finetek, Torrance, Calif.), snap frozen in isopentane/liquid nitrogen, and stored at −80° C. for analysis. Cryosections (5 μm thickness) along the longitudinal axis of the villi were used throughout all experiments. Cryosections were fixed in 10% formalin solution and processed in a non-blinded fashion.
In-situ tissue zymography: In-situ zymography for trypsin activity in cryosections was assessed by measurement of fluorescence resulting from the proteolytic cleavage of the substrate (1 mM, Na-benzoyl-L-arginine-7-amido-methylcoumarin hydrochloride; Sigma-Aldrich) as described elsewhere with propidium iodine counterstaining (Sigma-Aldrich) (9). Slides were observed under an inverted microscope (20× and 60× objectives).

The test system of experiment [3] is mucin2. The experiment is described as follows: Western blot for mucin2 of intestine homogenates, rat SAO model. Format: in vivo. Conditions: SAO 30 min, lumenal injection 30 min prior. The protocol: as §1, §2, §3, §4, §5
(§7) Homogenates of intestine and lumenal contents: Jejunal segments were excised without removal of lumenal contents. For enzyme activity measurements, segments of intestine were homogenized with CelLytic™ (Sigma-Aldrich) without addition of protease inhibitors. For Western blot assays the intestine segments were homogenized as above in the presence of protease inhibitors (5 mM EDTA, 5 mM N-Ethylmaleimide, 25 mM iodoacetamide, 5 mM benzamidine, 300 mM acarbose, 5 mM 6-aminocaproic acid, 1 mM protease inhibitor cocktail, (Sigma-Aldrich). In separate experiments the small intestine of sham animals was excised, and the lumenal contents were flushed with 20 ml saline. Homogenates or lumenal contents were centrifuged (16,000 g for 15 min at 4° C.), the supernatant was collected and protein concentration was assessed with the bicinchoninic acid protein assay (Thermo Scientific).
(§8) Western blot: 20 μg of tissue homogenate were separated by SDS-PAGE. Membranes were incubated with primary antibodies as follows: mucin2, mucin13 and trypsin 1:1000 (Santa Cruz Biotechnology), pancreatic amylase 1:1000 (GeneTex, San Antonio, Tex.), intra- and extra-cellular domains of E-cadherin and TLR4 1:1000 (Abcam), intracellular domain of TLR4 1:1000 (Invitrogen). Secondary antibodies were diluted 1:20000 (Santa Cruz Biotechnology) and detected with Super Signal West Pico (Thermo Scientific). The exposed x-ray films were scanned and label intensity was measured using digital gel analysis (NIH ImageJ software).

Experiment [4] deals with MDA equivalents (TBARS) in jejunal homogenates. Put plainly: Thiobarbituric Acid Reactive Substances (TBARS) assay, rat SAO model. It counts as in vivo. The following applies: SAO 30 min; lumenal injection 30 min prior. The protocol:
as §1, §2, §3
pH groups: Acidic saline (pH 5.5) injected in the lumen of the intestine 30 min prior SHAM surgery or HEPES buffer (20 mM) injected into the lumen of the intestine 30 min prior to SHAM or SAO surgery. […]
TBARS assay: Thiobarbituric Acid Reactive Substances (TBARS) was measured using the TBARS assay kit (Zeptometrix, Buffalo, N.Y.) according to manufacturer's protocol. […] Samples were centrifuged at 3000 rpm for 15 min and the supernatant were read at 530/550 (Ex/Em).

The subject of another experiment is mucin13. The experiment is described as follows: Western blot for mucin13 of intestine homogenates, rat SAO model. Format: in vivo. Conditions: SAO 30 min, lumenal injection 30 min prior. As to the method: as §1, §2, §3, §4, §5, §7, §8
Experiment [5] deals with lectin staining (carbohydrate portion of mucin). The experiment is described as follows: Lectin fluorescent staining (carbohydrate portion of mucin) of jejunal sections, rat SAO model. Format: in vivo. The following applies: SAO 30 min; lumenal injection 30 min prior. As to the method:
as §1, §2, §3, §4, §5, §6
(§9) Mucin and lectin staining: The simultaneous visualization of lectins and mucin was carried out using Lectin GS-II from Griffonia simplicifolia, Alexa Fluor® 594 Conjugate (EnzChek®, Invitrogen, Carlsbad, Calif.) and specific antibody for mucin2 with FITC secondary antibody 1:10000 (Santa Cruz Biotechnology) and nuclei counterstaining with DAPI. Sections were observed on an inverted microscope (20× objective) using the appropriate fluorescent filters.

Experiment [6] has as its system mucin2. Put plainly: Mucin2 fluorescent staining of jejunal sections, rat SAO model. It counts as in vivo. Conditions: SAO 30 min, lumenal injection 30 min prior. The protocol: as §1, §2, §3, §4, §5, §6, §9
The next experiment relates to shock. Conditions: ATP infusion before and during shock, given prior to hemorrhage; cited from earlier work.

Regarding ATP-MgCl2, the “ATP concentration in intestinal tissue homogenates” value in [1] (SAO 30 min) and in [1] (SHAM surgery) was “significantly increased the ATP concentration” in each case. The hypoxia staining levels entry with intestinal villi hypoxia is “significantly high levels of hypoxia staining as compared to SHAM groups”. Besides, the “trypsin activity in the intestinal wall” value in experiment [2] (SAO 30 min) is given as “Low levels of trypsin activity”; in experiment [2] (SAO 30 min, listed as ATP), “less trypsin activity in the wall as compared to the ischemic group with only lumenal saline”; in experiment [2] (SHAM surgery) it was “minimal trypsin activity”. In addition, the “mucin2 protein levels (relative density, Western blot)” value with mucin2 [3] was “the same mucin2 and mucin13 protein levels as the sham”; in the experiment on mucin2 [3] (listed as ATP), “preservation of mucin2 staining as well as protein levels of mucin2 and mucin13”. For the same substance, the “levels of MDA equivalents (TBARS)” value in [4] is given as “on average lower levels of MDA equivalents compared to SHAM or SAO, but they were not significant”. The “mucin13 protein levels / 17 kDa fragment (Western blot)” value is “the same mucin2 and mucin13 protein levels as the sham” in the experiment on mucin13; “preservation of mucin2 staining as well as protein levels of mucin2 and mucin13” in the experiment with mucin13 (listed as ATP). For the same substance, in experiment [5], the lectin staining levels result is “significantly lower as compared to the SHAM and SHAM-ATP-MgCl2”. The figures for the mucin2 staining levels entry in the experiment with mucin2 [6] and with mucin2 [6] (listed as ATP) were “significantly lower as compared to the SHAM group with saline but was not statistically different from SHAM-ATP-MgCl2” and “preservation of mucin2 staining”, respectively. Moreover, the survival of animals entry in the experiment on shock was “improves the survival of animals”.
